Assay [1] concerns HMPV clinical isolate A2 strain TN 94-49. The assay is described as follows: HMPV antiviral assay, Method 2 (LLC-MK2 cells with CP-100-356, ATP-Lite). The conditions noted are these: human metapneumovirus; hMPV A2 TN/94-49, LLC-MK2 cells with CP-100-356, Method 2. In kind it is cell-based. The method in brief:
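LLC-MK2 rhesus kidney cells (5,000/well) infected in suspension with HMPV A2 TN 94-49 at MOI 0.16, in serum-free medium with final 2 μg/mL TPCK-trypsin and 2 μM CP-100-356. Compounds tested in duplicate from 200 nM, 2.5-fold, 10 points; 7 days at 37 °C. Cell health by ATP-Lite luminescence; EC50 by four-parameter fit.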

The test system is the same in assay [2]. The assay is described as follows: HMPV antiviral assay, Method 1 (LLC-MK2 cells, ATP-Lite). Conditions: human metapneumovirus, hMPV A2 TN/94-49, LLC-MK2 cells. In kind it is cell-based. The method in brief: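 LLC-MK2 cells (5,000/well) infected in suspension with HMPV A2 TN 94-49 at MOI 0.005 in serum-free OptiMEM with 2 μg/mL final TPCK-trypsin, compounds in duplicate from 2 μM top, 2.5-fold, 10 points. After 7 days at 37° C, cell health by ATP-Lite luminescence normalised to virus and cell controls; EC50 from four-parameter fit.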

With `C[C@]1(C(N)=O)COc2c1cc([C@@](O)(CNC(=O)c1cc(OC3CC3)c3nn(C4(F)CC4)cc3c1)c1ccccc1)nc2-c1cccc(Cl)c1Cl` [Example 266], the figures for the EC50 in assay [1] and in assay [2] were below 200 nM and below 500 nM, respectively.

On to `COc1ccc([C@](O)(CNC(=O)c2cc(OC)c3nn(C4CC4)cc3c2)c2cc3c(c(-c4cc(Cl)c(F)cc4F)n2)OC[C@]3(C)C(N)=O)cc1` [Example 165], for which the EC50 in assay [1] was below 200 nM; in assay [2], below 500 nM.

Turning to `COc1cc(C(=O)NC[C@@](O)(c2ccccc2)c2cc3c(c(-c4cc(C(F)F)c(F)cc4F)n2)OC[C@]3(C)C(N)=O)cc2oc(C3CC3)nc12` [Example 299], the EC50 was below 200 nM in assay [1] and below 500 nM in assay [2].

Regarding `COc1cc(C(=O)NC[C@@](O)(c2ccc(F)cc2)c2cc3c(c(-c4cc(Cl)c(F)cc4F)n2)OC[C@]3(C)C(N)=O)cc2cn(C3(F)CC3)nc12` [Example 14], the figures for the EC50 in assay [1] and in assay [2] were below 200 nM and below 500 nM, respectively.

As to `COc1cc(C(=O)NC[C@@](O)(c2ccc(F)cc2)c2cc3c(c(-c4ccc5c(c4Cl)OC(F)(F)O5)n2)OC[C@]3(C)C(N)=O)cc2cn(C3(F)CC3)nc12` [Example 263], the EC50 in assay [1] was below 200 nM; in assay [2] it was below 500 nM.

Regarding `COc1cc(C(=O)NC[C@@](O)(c2ccccc2)c2cc3c(c(-c4cc(F)c(F)cc4F)n2)OC[C@]3(C)C(N)=O)cc2cn(C3(F)CC3)nc12` [Example 170], the EC50 in assay [1] was below 200 nM; in assay [2] it was below 500 nM.

As to `COc1cc(C(=O)NC[C@@](O)(c2ccccc2)c2cc3c(c(-c4ccc(F)c(Cl)c4Cl)n2)OC[C@]3(C)C(N)=O)cc2oc(C3CC3)nc12` [Example 278], the EC50 in assay [1] was below 200 nM; in assay [2] it was below 500 nM.

As to `[2H]C([2H])([2H])NC(=O)[C@@]1(C)COc2c1cc([C@@](O)(CNC(=O)c1cc(OC)c3nn(C4CC4)cc3c1)c1ccccc1)nc2-c1cc(Cl)c(F)cc1F` [Example 140], the EC50 in assay [1] was below 200 nM; in assay [2], below 500 nM.

Take `COc1cc(C(=O)NC[C@@](O)(c2ccccc2)c2cc3c(c(-c4cc(C(F)F)c(F)cc4F)n2)OC[C@]3(C)C(N)=O)cc2cn(C3(F)CC3)nc12` [Example 298]: the EC50 in assay [1] is below 200 nM; in assay [2] it was below 500 nM.

As to `COc1cc(C(=O)NC[C@@](O)(c2ccccc2)c2cc3c(c(-c4cccc(Cl)c4Cl)n2)OC[C@]3(C)C(N)=O)cc2cn(C3CC3)nc12` [Example 260], the results for the EC50 in assay [1] and in assay [2] were below 200 nM and below 500 nM, respectively.

For the compound `COc1cc(C(=O)NC[C@@](O)(c2ccccc2)c2cc3c(c(-c4cc(Cl)c(F)cc4F)n2)OC[C@]3(C)C(N)=O)cc2cc(Br)cnc12` [Example 185], the EC50 is below 200 nM in assay [1] and below 500 nM in assay [2].

With `Cc1nc2c(OC3CC3)cc(C(=O)NC[C@@](O)(c3ccccc3)c3cc4c(c(-c5ccc(F)c(Cl)c5Cl)n3)OC[C@]4(C)C(N)=O)cc2o1` [Example 271], the EC50 is below 200 nM in assay [1] and below 500 nM in assay [2].

For the compound `COc1cc(C(=O)NC[C@@](O)(c2ccccc2)c2cc3c(c(-c4cc(Cl)ccc4F)n2)OC[C@]3(C)C(N)=O)cc2cc(C3CC3)nn12` [Example 146], the EC50 in assay [1] is below 200 nM; in assay [2] it was below 500 nM.

Consider `C[C@]1(C(N)=O)COc2c1cc([C@@](O)(CNC(=O)c1ccc3nc(C4CC4)oc3c1)c1cccc(F)c1)nc2-c1ccc2c(c1Cl)OC(F)(F)O2` [Example 287], for which the EC50 is below 200 nM in assay [1] and below 500 nM in assay [2].

As for `COc1cc(C(=O)NCC(O)(c2cc3c(c(-c4cc(Cl)c(F)cc4F)n2)OC[C@]3(C)C(N)=O)c2ccc(C)s2)cc2cn(C3CC3)nc12` (stereo partly drawn) [Example 470], the EC50 in assay [1] was below 200 nM; in assay [2], below 500 nM.

As to `COc1cc(C(=O)NC[C@@](O)(c2ccccc2)c2cc3c(c(-c4cc(Cl)c(F)cc4F)n2)OC[C@]3(C)C(N)=O)cc2cc(C(F)F)nnc12` [Example 186], the EC50 in assay [1] was below 200 nM; in assay [2], above 500 nM.

For `COc1cc(C(=O)NC[C@@](O)(c2ccccc2)c2cc3c(c(-c4cc(Cl)ccc4F)n2)OC[C@]3(C)C(N)=O)cc2cn(C(F)F)nc12` [Example 145], the EC50 in assay [1] is below 200 nM; in assay [2] it was below 500 nM.

As to `C[C@]1(C(N)=O)COc2c1cc([C@@](O)(CNC(=O)c1cc(OC3CC3)c3nn(C(F)F)cc3c1)c1ccc(F)cc1)nc2-c1ccc2c(c1Cl)OC(F)(F)O2` [Example 265], the EC50 in assay [1] is below 200 nM; in assay [2], below 500 nM.

`COc1cc(C(=O)NC[C@](O)(c2cc3c(c(-c4ccc(F)c(F)c4C)n2)OC[C@]3(C)C(N)=O)C2CC2)cc2cn(C3CC3)nc12` [Example 70]: the values for the EC50 in assay [1] and in assay [2] were below 200 nM and below 500 nM, respectively.

With `COc1cc(C(=O)NC[C@@](O)(c2cccc(F)c2)c2cc3c(c(-c4cc(C(F)(F)F)c(F)cc4F)n2)OC[C@]3(C)C(N)=O)cc2cn(C3CC3)nc12` [Example 295], the EC50 in assay [1] was below 200 nM; in assay [2] it was below 500 nM.

For the compound `COc1cc(C(=O)NC[C@](O)(c2cc3c(c(-c4cc(Cl)c(F)cc4F)n2)OC[C@]3(C)C(N)=O)c2cccs2)cc2cn(C3CC3)nc12` [Example 474], the EC50 in assay [1] was below 200 nM; in assay [2], below 500 nM.

For the compound `C[C@]1(C(N)=O)COc2c1cc([C@@](O)(CNC(=O)c1cc(OC3CC3)c3nn(C4(F)CC4)cc3c1)C1CC1)nc2-c1cc(Cl)c(F)cc1F` [Example 5], the EC50 is below 200 nM in assay [1] and below 500 nM in assay [2].

In the case of `COc1cc(C(=O)NC[C@](O)(c2cc3c(c(-c4cc(F)c(F)cc4C)n2)OC[C@]3(C)C(N)=O)C2CC2)cc2cn(C3CC3)nc12` [Example 50], the half-maximal effective concentration (EC50) was below 200 nM in assay [1] and above 500 nM in assay [2].

For `COc1cc(C(=O)NC[C@@](O)(c2cccc(F)c2)c2cc3c(c(-c4cc(C(F)(F)F)c(F)cc4F)n2)OC[C@]3(C)C(N)=O)cc2oc(C3CC3)nc12` [Example 297], the EC50 in assay [1] is below 200 nM; in assay [2], below 500 nM.

With `COc1cc(C(=O)NC[C@@](O)(c2ccccc2)c2cc3c(c(-c4cc(Cl)c(F)cc4F)n2)OC[C@]3(C)C(N)=O)cc2cc(C)nnc12` [Example 89], the values for the EC50 in assay [1] and in assay [2] were below 200 nM and below 500 nM, respectively.

`COc1cc(C(=O)NCC(O)(c2cc3c(c(-c4cc(Cl)c(F)cc4F)n2)OC[C@]3(C)C(N)=O)c2cc(C(F)F)cs2)cc2cn(C3CC3)nc12` (stereo partly drawn) [Example 468]: the EC50 was below 200 nM in assay [1] and above 500 nM in assay [2].

Regarding `COc1cc(C(=O)NC[C@@](O)(c2ccccc2)c2cc3c(c(-c4cccc(Cl)c4Cl)n2)OC[C@]3(C)C(N)=O)cc2cn(C3(F)CC3)nc12` [Example 262], the EC50 is below 200 nM in assay [1] and below 500 nM in assay [2].

As for `C[C@]1(C(N)=O)COc2c1cc([C@@](O)(CNC(=O)c1cc(OC3CC3)c3nc(C4CC4)sc3c1)C1CC1)nc2-c1cc(Cl)c(F)cc1F` [Example 3], the figures for the EC50 in assay [1] and in assay [2] were below 200 nM and below 500 nM, respectively.

Take `C[C@]1(C(N)=O)COc2c1cc([C@@](O)(CNC(=O)c1ccc3nc(C4CC4)oc3c1)c1ccccc1)nc2-c1cc(Cl)c(F)cc1F` [Example 88]: the EC50 in assay [1] is below 200 nM; in assay [2], below 500 nM.

For `COc1cc(C(=O)NC[C@@](O)(c2ccccc2)c2cc3c(c(-c4ccc(F)c(Cl)c4Cl)n2)OC[C@]3(C)C(N)=O)cc2cc(Cl)cnc12` [Example 294], the values for the EC50 in assay [1] and in assay [2] were below 200 nM and below 500 nM, respectively.

Consider `COc1cc(C(=O)NC[C@@](O)(c2ccccc2)c2cc3c(c(-c4ccc(F)c(Cl)c4Cl)n2)OC[C@]3(C)C(N)=O)cc2cc(C3CC3)nnc12` [Example 290], for which the EC50 was below 200 nM in assay [1] and below 500 nM in assay [2].

`COc1cc(C(=O)NC[C@](O)(c2cc3c(c(-c4ccc5c(c4)OC(F)(F)O5)n2)OC[C@]3(C)C(N)=O)C2CC2)cc2cc(C)c(F)nc12` [Example 22]: the EC50 was below 200 nM in assay [1] and below 500 nM in assay [2].

As for `COc1cccc([C@](O)(CNC(=O)c2cc(OC)c3nn(C4CC4)cc3c2)c2cc3c(c(-c4cc(Cl)c(F)cc4F)n2)OC[C@]3(C)C(N)=O)c1` [Example 160], the figures for the EC50 in assay [1] and in assay [2] were below 200 nM and below 500 nM, respectively.

Regarding `COc1cc(C(=O)NC[C@@](O)(c2ccccc2)c2cc3c(c(-c4cc(C(F)(F)F)ccc4F)n2)OC[C@]3(C)C(N)=O)cc2cn(C3CC3)nc12` [Example 147], the 50% effective concentration (EC50) is below 200 nM in assay [1] and below 500 nM in assay [2].

Turning to `COc1cc(C(=O)NC[C@@](O)(c2ccccc2)c2cc3c(c(-c4ccc(F)c(Cl)c4Cl)n2)OC[C@]3(C)C(N)=O)cc2oc(C)nc12` [Example 277], the EC50 in assay [1] was below 200 nM; in assay [2] it was below 500 nM.

As to `COc1cc(C(=O)NC[C@@](O)(c2ccccc2)c2cc3c(c(-c4cc(Cl)c(F)cc4F)n2)OC[C@]3(C)C(N)=O)cc2cc(C3CC3)nnc12` [Example 90], the results for the EC50 in assay [1] and in assay [2] were below 200 nM and below 500 nM, respectively.

`C[C@]1(C(N)=O)COc2c1cc([C@@](O)(CNC(=O)c1cc(OC3CC3)c3nn(C4CC4)cc3c1)C1CC1)nc2-c1ccc(F)c(Cl)c1Cl` [Example 23]: the figures for the EC50 in assay [1] and in assay [2] were below 200 nM and below 500 nM, respectively.

Turning to `COc1cc(C(=O)NC[C@@](O)(c2ccccc2)c2cc3c(c(-c4cc(Cl)c(F)cc4F)n2)OC[C@]3(C)C(N)=O)cc2oc(C3CC3)nc12` [Example 85], the values for the EC50 in assay [1] and in assay [2] were below 200 nM and below 500 nM, respectively.

`COc1cc(C(=O)NC[C@@](O)(c2ccccc2)c2cc3c(c(-c4ccc(F)c(Cl)c4Cl)n2)OC[C@]3(C)C(N)=O)cc2cn(C3(F)CC3)nc12` [Example 259]: the EC50 in assay [1] is below 200 nM; in assay [2] it was below 500 nM.

The values above are taken from patent US20240368174A1, “Antiviral Heterocyclic Compounds” (Enanta Pharmaceuticals, Inc., priority 2023, published 2024).
